# In patent publication US9790203B2, “Inhibitor compounds of phosphodiesterase type 10A” (ABBVIE DEUTSCHLAND GMBH & CO. KG, priority 2012, dated 2017):
# Legend:
# [1] = system: rats; conditions: cited from earlier work
# [2] = system: rats; conditions: cited from earlier work; remark: listed apart in the source
# [3] = system: rats; conditions: cited from earlier work; remark: listed apart in the source
# [4] = Microsomal half-life / microsomal clearance, human liver microsomes; assay type: in vitro ADME; conditions: 0.5 μM test substance, 0.25 mg microsomal protein/ml, pH 7.4, 37° C.
# Method: (§1) The metabolic stability of the compounds of the invention was determined in the following assay.
# (§2) The test substances were incubated in a concentration of 0.5 μM as follows:
# (§3) 0.5 μM test substance are preincubated together with liver microsomes from different species (from rat, human or other species) (0.25 mg of microsomal protein/ml) in 0.05 M potassium phosphate buffer of pH 7.4 in microtiter plates at 37° C. for 5 min. The reaction is started by adding NADPH (1 mg/mL). After 0, 5, 10, 15, 20 and 30 min, 50 μl aliquots are removed, and the reaction is immediately stopped and cooled with the same volume of acetonitrile. The samples are frozen until analyzed. The remaining concentration of undegraded test substance is determined by MSMS. The half-life (T1/2) is determined from the gradient of the signal of test substance/unit time plot, it being possible to calculate the half-life of the test substance, assuming first order kinetics, from the decrease in the concentration of the compound with time. The microsomal clearance (mCl) is calculated from mCl=ln 2/T1/2/(content of microsomal protein in mg/ml)×1000 [ml/min/mg] (modified from references: Di, The Society for Biomoleculur Screening, 2003, 453-462; Obach, DMD, 1999 vol 27. N 11, 1350-1359).
# [5] = Microsomal half-life / microsomal clearance, rat liver microsomes; assay type: in vitro ADME; conditions: 0.5 μM test substance, 0.25 mg microsomal protein/ml, pH 7.4, 37° C.
# Method: as §1, §2, §3
# [6] = biological target: PDE10A (Homo sapiens (Human), UniProt Q9Y233); experiment: Measurement of PDE activity (HTRF cAMP kit, recombinant PDE); assay type: biochemical; conditions: recombinant PDE10, 20 nM cyclic nucleotide substrate, 60 minutes at 29 C
# Method: The recombinant PDE proteins are used in in vitro enzymatic reaction for measurement of PDE activity. These recombinant proteins, including PDE10A (human, rat and mouse PDE10) and isoforms of PDEs 1, 3, 4, and 5, were purchased from commercial vendor BPS Bioscience. The enzymatic activity of PDEs was determined by cAMP measurement kit from CisBio (IBA) using HTRF technology.
# The PDE enzymatic reaction was carried out in assay buffer (20 mM Tris-HCl pH7.5, 10 mM MgCl2, 0.1% bovine serum albumin) containing enzyme and substrate. […] The substrate cyclic nucleotide (cAMP or cGMP) concentration used in the assay was 20 nM for PDE10, and 100 nM for other PDEs. The inhibitory effect of compound was determined by incubating various concentration of inhibitor in the enzymatic assay. […] Next, the compound at varying concentration was mixed with PDE enzyme. The reaction was initiated by addition of cyclic nucleotide substrate, and incubated for 60 minutes at 29 C. The reaction was stopped by addition of lysis buffer from assay kit. The cAMP-d2 and anti-cAMP cryptate in the lysis buffer detected the level of cAMP left from the PDE hydrolysis reaction. […] Thus, IC50 value of inhibitor can be obtained by plotting inhibitor concentration against PDE activity at that concentration.
# PDE10A, sequence (Q9Y233 whole entry, species assumed, canonical isoform): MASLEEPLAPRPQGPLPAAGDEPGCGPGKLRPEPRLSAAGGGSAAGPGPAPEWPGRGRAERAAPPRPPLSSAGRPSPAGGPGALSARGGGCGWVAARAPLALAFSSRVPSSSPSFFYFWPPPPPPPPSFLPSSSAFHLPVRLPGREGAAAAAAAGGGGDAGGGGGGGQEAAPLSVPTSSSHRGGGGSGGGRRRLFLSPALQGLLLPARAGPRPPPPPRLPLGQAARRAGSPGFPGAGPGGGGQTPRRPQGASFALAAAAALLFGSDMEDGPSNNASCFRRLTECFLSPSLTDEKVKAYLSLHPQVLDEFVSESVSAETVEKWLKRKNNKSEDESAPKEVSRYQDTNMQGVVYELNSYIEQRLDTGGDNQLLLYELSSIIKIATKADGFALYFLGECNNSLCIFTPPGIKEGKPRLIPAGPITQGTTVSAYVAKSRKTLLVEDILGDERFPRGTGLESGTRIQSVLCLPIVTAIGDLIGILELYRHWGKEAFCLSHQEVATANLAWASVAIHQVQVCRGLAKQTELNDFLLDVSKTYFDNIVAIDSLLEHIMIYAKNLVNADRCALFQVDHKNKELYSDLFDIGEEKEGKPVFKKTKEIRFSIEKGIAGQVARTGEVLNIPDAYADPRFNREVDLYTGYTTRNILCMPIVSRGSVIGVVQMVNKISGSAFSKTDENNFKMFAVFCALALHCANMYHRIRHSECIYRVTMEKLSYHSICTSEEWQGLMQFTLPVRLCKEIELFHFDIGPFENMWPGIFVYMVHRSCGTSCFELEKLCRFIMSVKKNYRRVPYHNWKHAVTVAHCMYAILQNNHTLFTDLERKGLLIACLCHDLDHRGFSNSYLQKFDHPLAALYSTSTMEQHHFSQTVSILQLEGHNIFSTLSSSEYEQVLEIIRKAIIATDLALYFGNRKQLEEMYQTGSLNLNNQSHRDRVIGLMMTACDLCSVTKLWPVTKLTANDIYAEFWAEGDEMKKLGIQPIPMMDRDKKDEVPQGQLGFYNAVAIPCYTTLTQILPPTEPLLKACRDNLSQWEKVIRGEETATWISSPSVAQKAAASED
Human mCl [4],Rat mCl [5],IC50 [6] [nM],Structure (SMILES),catalepsy on its own ([1]; papaverine alone),cataleptic effect of the D2 receptor antagonist haloperidol ([1]; with haloperidol),reduction of amphetamine-induced hyperactivity [2],hyperactivity induced by PCP [3]
,,,"COc1ccc(Cc2nccc3cc(OC)c(OC)cc23)cc1OC [Papaverine, papaverine]",did not cause catalepsy on its own,potentiated the cataleptic effect,insignificant,reduced hyperactivity
++ (<100 μl min^−1 mg^−1),++ (<100 μl min^−1 mg^−1),100 to 200,"Cn1cc(-c2ccncc2)c(-c2ccc(C#Cc3nccs3)cc2)n1.O=C(O)C(F)(F)F [Example 17, 2-[2-[4-[1-methyl-4-(4-pyridyl)pyrazol-3-yl]phenyl]ethynyl]thiazole; 2,2,2-trifluoroacetic acid]",,,,
++ (<100 μl min^−1 mg^−1),++ (<100 μl min^−1 mg^−1),< 100,"Cn1cc(-c2ccncc2)c(-c2ccc(C#Cc3ccc4ncccc4n3)cc2)n1 [Example 13, 2-[2-[4-[1-methyl-4-(4-pyridyl)pyrazol-3-yl]phenyl]ethynyl]-1,5-naphthyridine]",,,,
